{
  "source": "patent US10596124B2",
  "about": "“Lipid nanoparticle compositions and methods as carriers of cannabinoids in standardized precision-metered dosage forms” (NanoSphere Health Sciences, LLC, priority 2015, dated 2020)",
  "origin": "cited, not measured here",
  "details": "intranasal",
  "data": [
    {"molecule": "C=C(C)[C@@H]1CCC(C)=C[C@H]1c1c(O)cc(CCCCC)cc1O", "note": "[CBD, cannabidiol]", "values": [
      {"measurement": "time to absorption into the systemic circulation", "result": "≤ 10", "unit": "min"}
    ]}
  ]
}
